Earlier results in US20240265995A1, “System of Predicting Sensitivity of Klebsiella against Cefoxitin and Method” (priority 2023, published 2024).

Test system: carbapenem resistant Klebsiella pneumoniae
Details: carbapenem resistant Klebsiella pneumoniae isolated from 2014 to 2017 (252/403)

## C[C@@H](O)[C@H]1C(=O)N2C(C(=O)O)=C(S[C@@H]3CN[C@H](C(=O)N(C)C)C3)[C@H](C)[C@H]12 [meropenem]
  resistance rate against meropenem: 62.5%
